Values quoted from earlier work, collected in patent US5629294A, “Compositions and methods for preventing adhesion formation” (University of Southern California, priority 1994, dated 1997).

What was measured:
[1] = system: platelet aggregation in response to ADP and collagen
[2] = system: platelet accumulation associated with the administration of a collagen substrate and ADP; conditions: baboon model, RGDV given at 0.35, 0.68 or 1.31 μmol/min

For RGDV, the “concentration necessary to effectively abolish platelet aggregation” value [1] is listed as 100 µM and the platelet accumulation [2] is listed as “dose-dependent reduction in platelet accumulation”.
